According to PMC10954593, “Gastrodinol derivatives and prenylated flavones from the flower branch of Gastrodia elata” (Natural Products and Bioprospecting, 2024):
≈ marks a conversion by molar mass, not a printed value. Read-outs that look alike come from different tables or passages of the source.

What was measured:
MRSA = test: anti-MRSA activity (96-well culture plate, OD at 625 nm after 24 h); assay type: cell-based, methicillin-resistant Staphylococcus aureus; conditions: for MIC50 (50% minimum inhibitory concentration), anti-MRSA / MIC50: 24 h; for MIC50: read-out: MIC50 (50% minimum inhibitory concentration), anti-MRSA; for inhibition at 100 µM: read-out: Inhibition rate (%) of MRSA; for anti-MRSA activity (in words): abstract statement
Method: Prepare samples with DMSO as a solvent into a solution with an initial concentration of 20 mM; Take a 96-well culture plate, dilute the sample to be measured, and add bacterial solution to each well, and the final concentration is 5 × 10^5 CFU/mL; Incubate at 37 °C for 24 h, and the microplate reader determines the OD value at 625 nm. The experiment also set up a media blank control, a bacterial control and a vancomycin-positive drug control.
MIC50 (50% minimum inhibitory concentration) is calculated according to the Reed & Muench method.

AChE = AChE (Homo sapiens, UniProt P22303); test: biochemical; assay type: biochemical; conditions: for inhibition at 50 µM: concentration 50 μM, read-out: AChE inhibition rate, primary screening; for IC50: positive control tacrine, read-out: IC50 of AChE-inhibiting activity; for acetylcholinesterase inhibitory activity (in words): abstract statement
Method: The reaction is carried out in a 96-well plate with plates plated by 200 μL/system with 3 replicates per sample; Detect the absorbance value of 405 nm every 30 s within 1 h after the addition of the color developer and substrate.

[1] = Staphylococcus aureus, MRSA, Reed & Muench method, 37 °C
[2] = Staphylococcus aureus, MRSA, concentration 100 μM, preliminary screen

AChE, sequence (P22303 32-614): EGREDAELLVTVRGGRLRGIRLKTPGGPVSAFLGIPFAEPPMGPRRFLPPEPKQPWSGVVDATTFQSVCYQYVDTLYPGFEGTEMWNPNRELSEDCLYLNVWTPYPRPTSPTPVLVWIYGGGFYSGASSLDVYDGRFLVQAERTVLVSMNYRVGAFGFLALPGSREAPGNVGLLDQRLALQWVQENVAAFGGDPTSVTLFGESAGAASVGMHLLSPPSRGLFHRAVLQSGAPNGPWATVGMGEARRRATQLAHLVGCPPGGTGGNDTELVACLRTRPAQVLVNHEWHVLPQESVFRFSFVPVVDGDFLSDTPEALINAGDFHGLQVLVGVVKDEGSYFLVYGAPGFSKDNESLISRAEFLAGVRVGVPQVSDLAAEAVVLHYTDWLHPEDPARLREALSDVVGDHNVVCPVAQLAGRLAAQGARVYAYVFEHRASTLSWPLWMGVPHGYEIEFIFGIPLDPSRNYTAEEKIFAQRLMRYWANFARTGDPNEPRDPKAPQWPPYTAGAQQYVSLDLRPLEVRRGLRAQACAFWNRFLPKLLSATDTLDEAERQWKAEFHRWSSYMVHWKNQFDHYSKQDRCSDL

Compound | MIC50 (50% minimum inhibitory concentration), anti-MRSA (MRSA; Reed & Muench method, 37 °C) | MIC50 (MRSA; [1]) | inhibition at 100 µM (MRSA; [2]) | anti-MRSA activity (in words) (MRSA) | inhibition at 50 µM (AChE) | IC50 (AChE) | MIC50 (MRSA; Reed & Muench method, 37 °C) | MIC50 (MRSA; Staphylococcus aureus, MRSA) | inhibition at 100 µM (MRSA; Staphylococcus aureus, MRSA) | acetylcholinesterase inhibitory activity (in words) (AChE)
CC(C)=CCc1c(-c2ccc(O)cc2O)oc2c(CC=C(C)C)c(O)cc(O)c2c1=O [Compound 12, kuwanon C] | 1.911 ± 0.018 µM (≈ 0.807 µg/mL) | 1.91 µM (≈ 0.807 µg/mL) | > 80% | good activity | – | – | – | – | – | –
COc1cc2ccc3c(c2c(O)c1Cc1ccc(O)cc1)C(=O)C(Cc1ccc(O)cc1)(Cc1ccc(O)cc1)C3=O [Compound 3, 9-hydroxy-2,2,8-tris(4-hydroxybenzyl)-7-methoxy-1H-cyclopenta[a]naphthalene-1,3(2H)-dione] | – | – | 13.5 ± 2.48% | – | > 60% | 15.7 ± 1.57 µM | – | – | – | –
CC(C)=CCc1c(O)cc(O)c2c(=O)c3c(oc12)-c1ccc(O)cc1OC3C=C(C)C (stereo not drawn) [Compound 11, cyclomulberrin] | 1.908 ± 0.014 µM (≈ 0.802 µg/mL) | 1.91 µM (≈ 0.802 µg/mL) | > 80% | good activity | – | – | – | – | – | –
Cc1ccc2c(c1)-c1cc(C3CC(=O)c4c(O)cc(O)cc4O3)c(O)cc1OC2(C)C (stereo not drawn) [Compound 5, 5,7-dihydroxy-2-(3-hydroxy-6,6,9-trimethyl-6H-benzo[c]chromen-2-yl) chroman-4-one] | 4.46 ± 0.02 µM (≈ 1.87 µg/mL) | 4.4 µM (≈ 1.84 µg/mL) | > 80% | good activity | – | – | 4.46 µM (≈ 1.87 µg/mL) | – | – | –
CN[C@H](CC(C)C)C(=O)N[C@H]1C(=O)N[C@@H](CC(N)=O)C(=O)N[C@H]2C(=O)N[C@H]3C(=O)N[C@H](C(=O)N[C@H](C(=O)O)c4cc(O)cc(O)c4-c4cc3ccc4O)[C@H](O)c3ccc(c(Cl)c3)Oc3cc2cc(c3O[C@@H]2O[C@H](CO)[C@@H](O)[C@H](O)[C@H]2O[C@H]2C[C@](C)(N)[C@H](O)[C@H](C)O2)Oc2ccc(cc2Cl)[C@H]1O [Vancomycin, reference compound] | – | – | – | – | – | – | – | 0.433 ± 0.002 µM (≈ 0.628 µg/mL) | 98.86 ± 0.495% | –
CC1(C)C=Cc2c(cc(O)c3c(=O)c(CC(O)C(C)(C)O)c(-c4ccc(O)cc4O)oc23)O1 (stereo not drawn) [Compound 6, 3-(2,3-dihydroxy-3-methylbutyl)-2-(2,4-dihydroxyphenyl)-5-hydroxy-8,8-dimethyl-4H,8H-pyrano[2,3-f] chromen-4-one] | – | 61.6 ± 1.56 µM (≈ 28 µg/mL) | > 80% | – | – | – | – | – | – | –
CC1=C[C@H]2c3c(O)cc(-c4cc5ccc(O)cc5o4)cc3O[C@@]3(c4ccc(O)cc4O)Oc4cc(O)ccc4[C@H](C1)[C@@H]23 [Compound 13, mulberrofuran G] | 1.264 ± 0.005 µM (≈ 0.711 µg/mL) | 1.26 µM (≈ 0.711 µg/mL) | > 80% | good activity | > 60% | 1.06 ± 0.011 µM | – | – | – | good acetylcholinesterase inhibitory activity
COc1cc(O)c2c3c(ccc2c1Cc1ccc(O)cc1)C(=O)C(Cc1ccc(O)cc1)(Cc1ccc(O)cc1)C3=O [Compound 2, 9-hydroxy-2,2,6-tris(4-hydroxybenzyl)-7-methoxy-1H-cyclopenta[a]naphthalene-1,3(2H)-dione] | – | – | 77.2 ± 1.61% | – | > 60% | 24.7 ± 0.732 µM | – | – | – | –
COc1c(Cc2ccc(O)cc2)c(O)c2c3c(ccc2c1Cc1ccc(O)cc1)C(O)CCC3=O (stereo not drawn) [Compound 1, 1,5-dihydroxy-6,8-bis(4-hydroxybenzyl)-7-methoxy-2,3-dihydrophenanthren-4(1H)-one] | – | 22.06 ± 0.026 µM (≈ 10.4 µg/mL) | > 80% | – | – | – | – | – | – | –
CC1=CC2c3c(cc(-c4cc5ccc(O)cc5o4)c(Cc4ccc(O)cc4)c3O)OC3(c4ccc(O)cc4O)Oc4cc(O)ccc4C(C1)C23 (stereo not drawn) [Compound 9, 8a-(2,4-dihydroxyphenyl)-6-(6-hydroxybenzofuran-2-yl)-5-(4-hydroxybenzyl)-2-methyl-1,3a1,8a,13b-tetrahydro-3aH-benzo [3, 4] isochromeno[1,8-bc] chromene-4,11-diol] | – | – | 63.95 ± 0.124% | – | > 60% | 0.488 ± 0.032 µM | – | – | – | good acetylcholinesterase inhibitory activity
